Experimental findings from patent publication US7358267B2, “Bis-aryl thiazole derivatives” (Amgen Inc., priority 2001, dated 2008) are described below.

In one data set the target is T1, RXRα (Homo sapiens, UniProt P19793).
T1 construct: expressed in transfected cells; host or cells: HEK 293 cells
T1 sequence (P19793 1-462): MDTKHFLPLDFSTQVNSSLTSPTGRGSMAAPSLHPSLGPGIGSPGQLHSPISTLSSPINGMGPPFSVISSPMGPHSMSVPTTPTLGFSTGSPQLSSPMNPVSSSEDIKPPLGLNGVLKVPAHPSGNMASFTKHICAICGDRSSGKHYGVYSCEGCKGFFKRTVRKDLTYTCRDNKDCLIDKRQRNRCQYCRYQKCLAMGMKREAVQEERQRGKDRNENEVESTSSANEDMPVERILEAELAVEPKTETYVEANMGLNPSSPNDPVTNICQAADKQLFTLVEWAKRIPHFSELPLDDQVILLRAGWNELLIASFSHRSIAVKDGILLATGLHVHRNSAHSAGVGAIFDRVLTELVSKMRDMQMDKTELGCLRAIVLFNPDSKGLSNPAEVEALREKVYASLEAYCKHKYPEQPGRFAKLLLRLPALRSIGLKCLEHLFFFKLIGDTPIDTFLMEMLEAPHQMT
The data set can be described thus: RXRα induction in HEK 293 cells (transient transfection, luciferase reporter). It counts as cell-based. As for the experimental part:
Table 2 provides QPCR data (ABI 7700 Sequence Detection System) for exemplary compounds of formula I evaluated for RXR induction in HEK 293 cells, following a general protocol, briefly described below. See Naeger et al. (1999) J. Biol. Chem. 274:1875-1878 for a related cell-based assay.
DNA constructs containing a luciferase reporter plasmid and another plasmid which contained an activation domain (e.g., RXRα) were transiently transfected into HEK 293 cells. The cells were treated with the compounds and luciferase activity was measured using a luminometer. Fold induction was determined by comparing the luciferase activity of treated cells to the activity of untreated cells.
Background: In a reporter assay the amount or activity of a reporter protein is the signal.

For a further data set, the system named is UCP3. In words: UCP3 RNA induction in rat L6 cells (QPCR). It counts as cell-based. The arrangement: key to UCP3 RNA induction, Induction at 10 μM: ++ denotes greater than 10-fold induction; + denotes 10-fold or less induction; — denotes no induction. Here is the method: Table 1 provides QPCR data (ABI 7700 Sequence Detection System) for exemplary compounds of formula I evaluated for UCP3 RNA induction in L6 cells from rats. The assay is described in Example 14.4, below.
Rat UCP3 (L6 cells) QPCR Protocol
1. (Day1) Plate 300,000 L6 cells per well (24 well plate) in Minimum Essential Medium-Alpha Medium with 2% FBS and Antibiotic/Antimycotic Solution added. Incubate for 2 days and change to fresh medium (Day3). Incubate 1 more day.
2. (Day 4) Add compound at desired concentration. Incubate for 18-20 h. 2 wells per compound. 4-wells of DMSO controls per plate.
3. (Day 5) Prepare RNA from cells: • (1) Aspirate media and lyse cells directly on plate by adding 500 μL of Trizol Reagent (Gibco BRL) to each well and passing the lysate several times through a pipette. Transfer lysate to eppendorf tubes (combining the lysate from identical compound treatments). • (2) Add 200 μL of chloroform to the 1 mL of lysate. Vortex to mix and incubate at room temp. for 2-3 min. Spin samples in a microfuge at 12,000 rpm for 15 min. at 4° C. • (3) Transfer the aqueous phase to a fresh tube. Precipitate the RNA from the aqueous phase by adding 500 μL of isopropanol and mixing well. Incubate at −20° C. for at least 15 min. Pellet the RNA by spinning at 12,000 rpm for 10 min. at 4° C. • (4) Remove the supernatant and wash the RNA pellet with 500 μL of 75% ethanol. Spin at 10,000 rpm for 5 min. at 4° C. • (5) Remove the supernatant and allow pellet to air dry briefly. Dissolve RNA in 15 μL of RNase-free water. Store at −80° C. Electrophorese some RNA to check quality.
4. QPCR (50 μL reactions in 96 well MicroAmp Optical Plate): TaqMan Gold RT-PCR Reagents (PE catalog #N808-0232): OD RNA and dilute to 5 ng/μL in RNase-free water. All samples run in duplicate with UCP3 and m18S probe/primers
Add 40 μL of Reaction Mix to 10 μL of diluted RNA (50 ng total) on QPCR plate PCR Cycling Parameters • 48° C. 30 min. • 95° C. 10 min. • 40 cycles: 95° C. 15 sec. • 58° C. 1.5 min. QPCR Primers/Probes

The next data set concerns UCP3 protein. In words: UCP3 protein induction in vivo in skeletal muscle after oral dosing (Western blot). The note with it: skeletal muscle tissue from Sprague-Dawley rats. As for the experimental part: UCP3 protein was induced 2- to 3-fold in vivo (skeletal muscle tissue from Sprague-Dawley rats) after oral dosing with compound 1 (Western blot).
1. Isolate rat or mouse skeletal muscle and snap freeze in liquid nitrogen. Grind into a fine powder using mortar and pestle and transfer to an eppendorf tube.
2. Resuspend skeletal muscle in Buffer 1 (0.15 mM MgCl2, 10 mM KCl, 10 mM Tris-HCl, pH 6.7, stored at 4° C.).
3. Place resuspended cells on ice for 2 min. Homogenize using either Potter-Eleuhjem Teflon homogenizer and glass dounce or using hand held homogenizer for 2 min.
4. Add sucrose (1 M) to a final concentration of 0.25 M and spin at 1500 g (4000 rpm in microfuge) for 3 min. to remove nuclei.
5. Take the supernatant fraction and pellet the mitochondria by centrifugation at 10000 rpm for 10 min.
6. Resuspend pellet in 500 μl Buffer 2 (0.15 mM MgCl2, […], 10 mM Tris-HCl, pH 6.7, stored at 2-4° C.).
9. Resuspend final mitochondrial pellet in 2 7 μl Buffer 3 (0.25 M Sucrose, 10 mM Tris-acetate, pH 7.0, 3 μl 10× protease inhibitor cocktail (BMB), stored at 4° C.).
10. Determine protein concentration with BioRad protein assay dye (Bradford Reagent). 1 μl protein in 100 μl 1× Bradford Reagent. OD595 with BSA standard curve (1 μg/μl-50 μg/μl).
For antiUCP3 Westerns use 60 μg protein. Run precast 10% gels until dye front is about 1 cm from bottom of gel. […]
For orientation: In western blotting, separated proteins are transferred to a membrane and probed.

Molecules are shown by their SMILES.

A word on the melting point: it is the temperature, or range, at which the solid turns liquid. Usually fold induction stands for the signal under treatment as a multiple of the control signal. In turn, `Cc1c(C(=O)O)cnn1-c1nc(-c2ccccc2C(F)(F)F)cs1` [Compound 7, 1-[4-(2-(Trifluoromethyl)phenyl)thiazol-2-yl]-5-methylpyrazole-4-carboxylic acid] showed a melting point of 215.5 to 216.5 °C. Further, at RXRα, the “RXRα RNA induction at 1 μM” value is given as “+ (+ denotes 5-fold or less induction)”, the “RXRα RNA induction at 3 μM” value is given as “+ (+ denotes 5-fold or less induction)” and the “RXRα RNA induction at 10 μM” value is “+ (+ denotes 5-fold or less induction)”. Further, the fold induction at 10 µM in the data set on UCP3 is over 10.
In turn, `Cc1c(C(=O)O)cnn1-c1nc(-c2cc(C(F)(F)F)cc(C(F)(F)F)c2)cs1` [Compound 10, 1-[4-(3,5-Bis(trifluoromethyl)phenyl)thiazol-2-yl]-5-methylpyrazole-4-carboxylic acid] came in with a melting point of 260.9 to 261.4 °C. Further, at RXRα, the “RXRα RNA induction at 1 μM” value is reported as “+ (+ denotes 5-fold or less induction)”, the “RXRα RNA induction at 3 μM” value is on record as “++ (++ denotes greater than 5-fold induction)” and the “RXRα RNA induction at 10 μM” value is reported as “+ (+ denotes 5-fold or less induction)”. Moreover, the fold induction at 10 µM in the data set with UCP3 is at most 10.
With `CCOC(=O)c1cnn(-c2nc(-c3cccc(C(F)(F)F)c3)cs2)c1C` [Compound 11, Ethyl 1-[4-(3-(trifluoromethyl)phenyl)thiazol-2-yl]-5-methylpyrazole-4-carboxylate], the melting point was 138 to 138.5 °C. Also, in the data set on UCP3, the fold induction at 10 µM is at most 10.
For the compound `Cc1c(C(=O)O)cnn1-c1nc(-c2ccc3ccccc3c2)cs1` [Compound 9, 1-[4-(2-Naphthyl)thiazol-2-yl]-5-methylpyrazole-4-carboxylic acid], the melting point lay within 273.1 to 274.3 °C. Besides, at RXRα, the “RXRα RNA induction at 1 μM” value was “+ (+ denotes 5-fold or less induction)”, the “RXRα RNA induction at 3 μM” value is “+ (+ denotes 5-fold or less induction)” and the “RXRα RNA induction at 10 μM” value was “+ (+ denotes 5-fold or less induction)”. In the data set with UCP3, the “UCP3 RNA induction, Induction at 10 μM” value is recorded as “—”.
`Cc1c(C(=O)O)cnn1-c1nc(-c2ccc(Cl)c(Cl)c2)cs1` [Compound 3, 1-[4-(3,4-Dichlorophenyl)thiazol-2-yl]-5-methylpyrazole-4-carboxylic acid] yielded a melting point of 278 to 278.6 °C. For the same compound, on RXRα, the “RXRα RNA induction at 1 μM” value is listed as “+ (+ denotes 5-fold or less induction)”, the “RXRα RNA induction at 3 μM” value is on record as “+ (+ denotes 5-fold or less induction)” and the “RXRα RNA induction at 10 μM” value is recorded as “+ (+ denotes 5-fold or less induction)”. Moreover, in the data set with UCP3, the fold induction at 10 µM was over 10.
The compound `O=C(O)c1cnn(-c2nc(-c3cc(C(F)(F)F)cc(C(F)(F)F)c3)cs2)c1C(F)(F)F` [Compound 13, 1-[4-(3,5-Bis(trifluoromethyl)phenyl)thiazol-2-yl]-5-(trifluoromethyl)pyrazole-4-carboxylic acid] showed a melting point of 204 to 204.7 °C. Also, on RXRα, the “RXRα RNA induction at 1 μM” value is on record as “+ (+ denotes 5-fold or less induction)”, the “RXRα RNA induction at 3 μM” value is listed as “+ (+ denotes 5-fold or less induction)” and the “RXRα RNA induction at 10 μM” value was “+ (+ denotes 5-fold or less induction)”. Besides, the fold induction at 10 µM in the data set on UCP3 is at most 10.
Consider `Cc1c(C(=O)O)cnn1-c1nc(-c2ccc(C(F)(F)F)cc2)cs1` [Compound 2, 1-[4-(4-(Trifluoromethyl)phenyl)thiazol-2-yl]-5-methylpyrazole-4-carboxylic acid], for which the melting point lay in the range of 273 to 274 °C. Further, on RXRα, the “RXRα RNA induction at 1 μM” value is “+ (+ denotes 5-fold or less induction)”, the “RXRα RNA induction at 3 μM” value is recorded as “+ (+ denotes 5-fold or less induction)” and the “RXRα RNA induction at 10 μM” value was “+ (+ denotes 5-fold or less induction)”. Further, the fold induction at 10 µM in the data set with UCP3 was over 10.
On to `Cc1c(C(=O)O)cnn1-c1nc(-c2cccc(C(F)(F)F)c2)cs1` [Compound 1, 1-[4-(3-(Trifluoromethyl)phenyl)thiazol-2-yl]-5-methylpyrazole-4-carboxylic acid], for which the melting point lay within 226.7 to 227.5 °C. On RXRα, the “RXRα RNA induction at 1 μM” value is on record as “++ (++ denotes greater than 5-fold induction)”, the “RXRα RNA induction at 3 μM” value is recorded as “+ (+ denotes 5-fold or less induction)” and the “RXRα RNA induction at 10 μM” value is “+ (+ denotes 5-fold or less induction)”. Further, in the data set on UCP3, the fold induction at 10 µM was over 10. Further, the UCP3 protein induction in the data set with UCP3 protein is 2- to 3 fold.
